Laboratory results reported in patent US20250314644A1, “METHODS COMPRISING DETECTION OF ADP-HEPTOSE” (CHILDREN'S HOSPITAL MEDICAL CENTER, priority 2023, published 2025).

Test system: Dnmt3a^WT cells
Assay: RNA-sequencing of HSPCs treated in vitro with ADP-heptose or H2O for 90 minutes
Assay type: cell-based, mouse

Nc1ncnc2c1ncn2[C@@H]1O[C@H](COP(=O)(O)OP(=O)(O)O[C@@H]2O[C@H]([C@H](O)CO)[C@@H](O)[C@H](O)[C@@H]2O)[C@@H](O)[C@H]1O [ADP-heptose, ADP-D-glycero-β-D-manno-heptose]
logFC 2900005J15Rik (Dnmt3a^WT cells, vs H2O): 0.6052
logFC AI607873 (Dnmt3a^WT cells, vs H2O): 0.6683
logFC Abca1 (Dnmt3a^WT cells, vs H2O): −0.707
logFC Acsbg1 (Dnmt3a^WT cells, vs H2O): 0.5944
logFC Adgrg6 (Dnmt3a^WT cells, vs H2O): −0.645
logFC Akap12 (Dnmt3a^WT cells, vs H2O): −1.955
logFC Akr1c18 (Dnmt3a^WT cells, vs H2O): 0.7051
logFC Alpk2 (Dnmt3a^WT cells, vs H2O): 1.196
logFC Aoc1 (Dnmt3a^WT cells, vs H2O): 2.048
logFC Arg1 (Dnmt3a^WT cells, vs H2O): 0.7872
logFC Arl5c (Dnmt3a^WT cells, vs H2O): −0.704
logFC Arntl (Dnmt3a^WT cells, vs H2O): −0.87
logFC Asb2 (Dnmt3a^WT cells, vs H2O): 1.407
logFC Atoh8 (Dnmt3a^WT cells, vs H2O): 0.7783
logFC Azin2 (Dnmt3a^WT cells, vs H2O): 0.6183
logFC B3galt5 (Dnmt3a^WT cells, vs H2O): 0.9015
logFC Bach2 (Dnmt3a^WT cells, vs H2O): −0.675
logFC Bcl2a1b (Dnmt3a^WT cells, vs H2O): 0.925
logFC Bcl2a1d (Dnmt3a^WT cells, vs H2O): 0.6551
logFC Bhlha15 (Dnmt3a^WT cells, vs H2O): −0.596
logFC Blk (Dnmt3a^WT cells, vs H2O): −1.578
logFC Blnk (Dnmt3a^WT cells, vs H2O): −1.446
logFC Cacna1f (Dnmt3a^WT cells, vs H2O): 0.7515
logFC Ccdc63 (Dnmt3a^WT cells, vs H2O): −0.697
logFC Ccdc85c (Dnmt3a^WT cells, vs H2O): 0.7217
logFC Ccl5 (Dnmt3a^WT cells, vs H2O): 1.104
logFC Ccl17 (Dnmt3a^WT cells, vs H2O): 2.045
logFC Ccl22 (Dnmt3a^WT cells, vs H2O): 0.7001
logFC Ccl24 (Dnmt3a^WT cells, vs H2O): 1.365
logFC Cd19 (Dnmt3a^WT cells, vs H2O): −1.847
logFC Cd40 (Dnmt3a^WT cells, vs H2O): 0.6226
logFC Cd74 (Dnmt3a^WT cells, vs H2O): 0.82
logFC Cd79a (Dnmt3a^WT cells, vs H2O): −1.818
logFC Cd83 (Dnmt3a^WT cells, vs H2O): 1.204
logFC Cecr2 (Dnmt3a^WT cells, vs H2O): −1.929
logFC Chst3 (Dnmt3a^WT cells, vs H2O): −1.597
logFC Cmpk2 (Dnmt3a^WT cells, vs H2O): 0.7001
logFC Cplx2 (Dnmt3a^WT cells, vs H2O): −1.36
logFC Cx3cl1 (Dnmt3a^WT cells, vs H2O): 0.9782
logFC Cxc12 (Dnmt3a^WT cells, vs H2O): −1.129
logFC Cxcl3 (Dnmt3a^WT cells, vs H2O): −0.91
logFC Cyp4f17 (Dnmt3a^WT cells, vs H2O): 0.6547
logFC Dact3 (Dnmt3a^WT cells, vs H2O): 0.6573
logFC Dcstamp (Dnmt3a^WT cells, vs H2O): 0.6406
logFC Ddx60 (Dnmt3a^WT cells, vs H2O): 0.7796
logFC Dhx58 (Dnmt3a^WT cells, vs H2O): 0.8261
logFC Dntt (Dnmt3a^WT cells, vs H2O): −2.827
logFC Dock9 (Dnmt3a^WT cells, vs H2O): −0.589
logFC Dsp (Dnmt3a^WT cells, vs H2O): −0.701
logFC Ebf1 (Dnmt3a^WT cells, vs H2O): −2.106
logFC Ednrb (Dnmt3a^WT cells, vs H2O): −0.653
logFC Efnb2 (Dnmt3a^WT cells, vs H2O): 0.9402
logFC Egr3 (Dnmt3a^WT cells, vs H2O): 0.785
logFC Eno2 (Dnmt3a^WT cells, vs H2O): 0.6638
logFC Epsti1 (Dnmt3a^WT cells, vs H2O): 0.6192
logFC Fam129c (Dnmt3a^WT cells, vs H2O): −0.677
logFC Fam132b (Dnmt3a^WT cells, vs H2O): −0.657
logFC Fktn (Dnmt3a^WT cells, vs H2O): −0.609
logFC Gimap8 (Dnmt3a^WT cells, vs H2O): 0.7417
logFC Gm13152 (Dnmt3a^WT cells, vs H2O): −0.827
logFC Gpr27 (Dnmt3a^WT cells, vs H2O): 0.7663
logFC Grap (Dnmt3a^WT cells, vs H2O): 0.7694
logFC Grasp (Dnmt3a^WT cells, vs H2O): 0.5879
logFC Grin2c (Dnmt3a^WT cells, vs H2O): 0.9953
logFC Grtp1 (Dnmt3a^WT cells, vs H2O): −0.628
logFC Gstt1 (Dnmt3a^WT cells, vs H2O): 1.055
logFC Gzmc (Dnmt3a^WT cells, vs H2O): 2.215
logFC H2-Aa (Dnmt3a^WT cells, vs H2O): 0.9618
logFC H2-Ab1 (Dnmt3a^WT cells, vs H2O): 0.9351
logFC H2-DMb2 (Dnmt3a^WT cells, vs H2O): 0.7028
logFC H2-Eb1 (Dnmt3a^WT cells, vs H2O): 1.049
logFC Hgfac (Dnmt3a^WT cells, vs H2O): 0.647
logFC Hist1h2bj (Dnmt3a^WT cells, vs H2O): 1.326
logFC Hist1h3c (Dnmt3a^WT cells, vs H2O): 0.7275
logFC Hist1h3e (Dnmt3a^WT cells, vs H2O): 1.345
logFC Hist1h4d (Dnmt3a^WT cells, vs H2O): 0.8341
logFC Hivep2 (Dnmt3a^WT cells, vs H2O): 0.787
logFC Hivep3 (Dnmt3a^WT cells, vs H2O): −0.682
logFC Hmga1 (Dnmt3a^WT cells, vs H2O): 0.812
logFC Hsh2d (Dnmt3a^WT cells, vs H2O): 0.6798
logFC Htr7 (Dnmt3a^WT cells, vs H2O): 0.9558
logFC I113 (Dnmt3a^WT cells, vs H2O): 1.008
logFC Ifi27l2a (Dnmt3a^WT cells, vs H2O): 0.8565
logFC Ifi44 (Dnmt3a^WT cells, vs H2O): 0.8977
logFC Ifi204 (Dnmt3a^WT cells, vs H2O): 0.7452
logFC Ifit1 (Dnmt3a^WT cells, vs H2O): 1.338
logFC Ifit3 (Dnmt3a^WT cells, vs H2O): 1.739
logFC Ifit3b (Dnmt3a^WT cells, vs H2O): 1.88
logFC Igll1 (Dnmt3a^WT cells, vs H2O): −2.359
logFC Il1a (Dnmt3a^WT cells, vs H2O): −1.749
logFC Il1b (Dnmt3a^WT cells, vs H2O): −1.155
logFC Il6 (Dnmt3a^WT cells, vs H2O): 0.8099
logFC Irf7 (Dnmt3a^WT cells, vs H2O): 1.151
logFC Irg1 (Dnmt3a^WT cells, vs H2O): −0.846
logFC Isg15 (Dnmt3a^WT cells, vs H2O): 1.268
logFC Jakmip1 (Dnmt3a^WT cells, vs H2O): −0.62
logFC Kcnj5 (Dnmt3a^WT cells, vs H2O): −0.586
logFC Kif19a (Dnmt3a^WT cells, vs H2O): −2.028
logFC Klrd1 (Dnmt3a^WT cells, vs H2O): 0.6629
logFC Kynu (Dnmt3a^WT cells, vs H2O): 0.8281
logFC Lad1 (Dnmt3a^WT cells, vs H2O): 1.447
logFC Lax1 (Dnmt3a^WT cells, vs H2O): −1.106
logFC Lef1 (Dnmt3a^WT cells, vs H2O): −1.83
logFC Lgals3bp (Dnmt3a^WT cells, vs H2O): 0.6079
logFC Lrrc32 (Dnmt3a^WT cells, vs H2O): 0.6455
logFC Lrrc51 (Dnmt3a^WT cells, vs H2O): 0.7656
logFC Ltbp4 (Dnmt3a^WT cells, vs H2O): −0.7
logFC Lynx1 (Dnmt3a^WT cells, vs H2O): 0.6016
logFC Mir6236 (Dnmt3a^WT cells, vs H2O): 1.076
logFC Mir6516 (Dnmt3a^WT cells, vs H2O): 0.6089
logFC Mir8112 (Dnmt3a^WT cells, vs H2O): 0.8138
logFC Mmp14 (Dnmt3a^WT cells, vs H2O): −0.771
logFC Mnda (Dnmt3a^WT cells, vs H2O): 0.9121
logFC Mpl (Dnmt3a^WT cells, vs H2O): −0.631
logFC Ms4a4c (Dnmt3a^WT cells, vs H2O): 1.575
logFC Mx1 (Dnmt3a^WT cells, vs H2O): 0.6985
logFC Mx2 (Dnmt3a^WT cells, vs H2O): 1.416
logFC Mzb1 (Dnmt3a^WT cells, vs H2O): −1.509
logFC Nov (Dnmt3a^WT cells, vs H2O): 0.9714
logFC Nr4a3 (Dnmt3a^WT cells, vs H2O): 0.7772
logFC Oas1a (Dnmt3a^WT cells, vs H2O): 0.8999
logFC Oas1b (Dnmt3a^WT cells, vs H2O): 0.8441
logFC Oas1c (Dnmt3a^WT cells, vs H2O): 0.6578
logFC Oas1g (Dnmt3a^WT cells, vs H2O): 1.142
logFC Oas2 (Dnmt3a^WT cells, vs H2O): 0.966
logFC Oas3 (Dnmt3a^WT cells, vs H2O): 0.864
logFC Oasl1 (Dnmt3a^WT cells, vs H2O): 1.088
logFC Oasl2 (Dnmt3a^WT cells, vs H2O): 1.178
logFC Oit3 (Dnmt3a^WT cells, vs H2O): 0.5873
logFC P4htm (Dnmt3a^WT cells, vs H2O): 0.6018
logFC Parp12 (Dnmt3a^WT cells, vs H2O): 0.7346
logFC Pcbd1 (Dnmt3a^WT cells, vs H2O): −0.601
logFC Pcsk9 (Dnmt3a^WT cells, vs H2O): −0.871
logFC Pdgfb (Dnmt3a^WT cells, vs H2O): 0.647
logFC Perp (Dnmt3a^WT cells, vs H2O): 0.6841
logFC Pglyrp2 (Dnmt3a^WT cells, vs H2O): 0.8355
logFC Phf11b (Dnmt3a^WT cells, vs H2O): 1.046
logFC Plcb1 (Dnmt3a^WT cells, vs H2O): 0.628
logFC Plek2 (Dnmt3a^WT cells, vs H2O): 1.111
logFC Pou2af1 (Dnmt3a^WT cells, vs H2O): −1.979
logFC Ppbp (Dnmt3a^WT cells, vs H2O): 0.6175
logFC Procr (Dnmt3a^WT cells, vs H2O): −0.659
logFC Prok2 (Dnmt3a^WT cells, vs H2O): −0.608
logFC Ptch2 (Dnmt3a^WT cells, vs H2O): −0.695
logFC Ptpn 14 (Dnmt3a^WT cells, vs H2O): −1.123
logFC Ptprn (Dnmt3a^WT cells, vs H2O): 0.7392
logFC Rab17 (Dnmt3a^WT cells, vs H2O): −0.755
logFC Rag1 (Dnmt3a^WT cells, vs H2O): −3.551
logFC Ramp3 (Dnmt3a^WT cells, vs H2O): 0.8948
logFC Rbp1 (Dnmt3a^WT cells, vs H2O): −0.727
logFC Rsad2 (Dnmt3a^WT cells, vs H2O): 1.141
logFC Rsph1 (Dnmt3a^WT cells, vs H2O): −0.696
logFC Rtp4 (Dnmt3a^WT cells, vs H2O): 1.478
logFC Scn4b (Dnmt3a^WT cells, vs H2O): −2.647
logFC Sdc3 (Dnmt3a^WT cells, vs H2O): 0.6166
logFC Siglech (Dnmt3a^WT cells, vs H2O): −0.625
logFC Sirpb1b (Dnmt3a^WT cells, vs H2O): −0.633
logFC Slc25a27 (Dnmt3a^WT cells, vs H2O): −0.715
logFC Slc52a3 (Dnmt3a^WT cells, vs H2O): 0.8162
logFC Slfn4 (Dnmt3a^WT cells, vs H2O): 0.7308
logFC Slfn5 (Dnmt3a^WT cells, vs H2O): 1.407
logFC Slfn8 (Dnmt3a^WT cells, vs H2O): 0.8032
logFC Smim8 (Dnmt3a^WT cells, vs H2O): 0.6316
logFC Smpdl3b (Dnmt3a^WT cells, vs H2O): −0.714
logFC Snhg9 (Dnmt3a^WT cells, vs H2O): −0.7
logFC Spry1 (Dnmt3a^WT cells, vs H2O): 0.6924
logFC Srp54b (Dnmt3a^WT cells, vs H2O): 2.042
logFC St6gal1 (Dnmt3a^WT cells, vs H2O): −0.723
logFC Stbd1 (Dnmt3a^WT cells, vs H2O): 0.7931
logFC Tmem51 (Dnmt3a^WT cells, vs H2O): 0.6591
logFC Tnfrsf9 (Dnmt3a^WT cells, vs H2O): 0.982
logFC Tnfrsf11b (Dnmt3a^WT cells, vs H2O): 3.017
logFC Tnni1 (Dnmt3a^WT cells, vs H2O): 3.17
logFC Traf1 (Dnmt3a^WT cells, vs H2O): 0.6999
logFC Tsku (Dnmt3a^WT cells, vs H2O): −0.836
logFC Tspan13 (Dnmt3a^WT cells, vs H2O): −0.592
logFC Tssk6 (Dnmt3a^WT cells, vs H2O): 0.668
logFC Ube2j2 (Dnmt3a^WT cells, vs H2O): 0.8674
logFC Usp18 (Dnmt3a^WT cells, vs H2O): 1.346
logFC Vpreb1 (Dnmt3a^WT cells, vs H2O): −2.268
logFC Vpreb2 (Dnmt3a^WT cells, vs H2O): −2.096
logFC Vpreb3 (Dnmt3a^WT cells, vs H2O): −2.553
logFC Wdr86 (Dnmt3a^WT cells, vs H2O): 1.035
logFC Xaf1 (Dnmt3a^WT cells, vs H2O): 1.054
logFC Zbp1 (Dnmt3a^WT cells, vs H2O): 1.131
logFC Zbtb37 (Dnmt3a^WT cells, vs H2O): −0.702
logFC Zbtb46 (Dnmt3a^WT cells, vs H2O): 1.256
differentially expressed genes (global transcriptomic analysis) (WT HSPCs): few differentially expressed genes
